Here are results for eleven molecules from paper PMC7933229 (Scientific Reports, 2021).

Read-outs that look alike come from different tables or passages of the source. Residues, ends and D or L forms follow the SMILES beside them.

The test system of one assay is ACE. Particulars: cited from earlier work.
For assay [1], the target named is T1, angiotensin I-converting enzyme (ACE) from rabbit lung (rabbit) (UniProt P12822).
T1 sequence: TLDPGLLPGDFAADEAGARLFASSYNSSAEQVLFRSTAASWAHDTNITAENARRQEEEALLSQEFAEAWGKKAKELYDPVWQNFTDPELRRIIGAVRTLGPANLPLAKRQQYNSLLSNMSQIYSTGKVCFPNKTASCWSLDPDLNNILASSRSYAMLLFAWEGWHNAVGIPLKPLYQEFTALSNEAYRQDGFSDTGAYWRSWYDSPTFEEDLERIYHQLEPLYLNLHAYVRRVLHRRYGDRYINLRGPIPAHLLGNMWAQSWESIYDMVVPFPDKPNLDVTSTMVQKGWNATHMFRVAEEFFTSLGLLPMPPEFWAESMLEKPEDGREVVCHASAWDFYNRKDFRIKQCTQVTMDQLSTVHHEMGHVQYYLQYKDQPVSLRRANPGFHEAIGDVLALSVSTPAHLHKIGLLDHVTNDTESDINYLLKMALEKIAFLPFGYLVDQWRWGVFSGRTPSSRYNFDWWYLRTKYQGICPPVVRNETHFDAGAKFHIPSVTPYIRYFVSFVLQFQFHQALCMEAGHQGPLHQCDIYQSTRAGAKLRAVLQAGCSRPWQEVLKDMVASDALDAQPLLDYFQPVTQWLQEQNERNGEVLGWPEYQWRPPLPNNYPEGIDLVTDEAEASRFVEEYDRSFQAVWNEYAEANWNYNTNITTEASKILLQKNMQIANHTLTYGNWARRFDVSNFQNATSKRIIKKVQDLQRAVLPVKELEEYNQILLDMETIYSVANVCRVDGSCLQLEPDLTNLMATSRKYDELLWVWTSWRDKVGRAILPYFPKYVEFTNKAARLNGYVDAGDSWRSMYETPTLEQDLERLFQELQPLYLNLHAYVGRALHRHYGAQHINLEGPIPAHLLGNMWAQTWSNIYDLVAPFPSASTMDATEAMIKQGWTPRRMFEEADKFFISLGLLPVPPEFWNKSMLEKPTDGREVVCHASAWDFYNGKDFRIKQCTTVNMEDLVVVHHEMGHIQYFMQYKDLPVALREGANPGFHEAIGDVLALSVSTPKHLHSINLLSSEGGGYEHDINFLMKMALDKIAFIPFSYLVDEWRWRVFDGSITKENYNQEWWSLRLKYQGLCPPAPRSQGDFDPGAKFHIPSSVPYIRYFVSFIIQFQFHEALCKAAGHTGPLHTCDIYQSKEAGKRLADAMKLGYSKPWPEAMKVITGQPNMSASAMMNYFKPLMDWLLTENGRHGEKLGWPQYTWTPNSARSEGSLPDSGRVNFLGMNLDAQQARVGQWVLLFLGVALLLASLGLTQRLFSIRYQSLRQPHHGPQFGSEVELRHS

The target in another assay is T2, ACE (from rabbit lung) (Oryctolagus cuniculus, UniProt P12822).
T2 construct: ACE (from rabbit lung) were obtained from Sigma-Aldrich Co; purchased Sigma-Aldrich Co. (St. Louis, MO, USA); host or cells: rabbit lung (tissue-derived enzyme)
T2 sequence (P12822 34-1310): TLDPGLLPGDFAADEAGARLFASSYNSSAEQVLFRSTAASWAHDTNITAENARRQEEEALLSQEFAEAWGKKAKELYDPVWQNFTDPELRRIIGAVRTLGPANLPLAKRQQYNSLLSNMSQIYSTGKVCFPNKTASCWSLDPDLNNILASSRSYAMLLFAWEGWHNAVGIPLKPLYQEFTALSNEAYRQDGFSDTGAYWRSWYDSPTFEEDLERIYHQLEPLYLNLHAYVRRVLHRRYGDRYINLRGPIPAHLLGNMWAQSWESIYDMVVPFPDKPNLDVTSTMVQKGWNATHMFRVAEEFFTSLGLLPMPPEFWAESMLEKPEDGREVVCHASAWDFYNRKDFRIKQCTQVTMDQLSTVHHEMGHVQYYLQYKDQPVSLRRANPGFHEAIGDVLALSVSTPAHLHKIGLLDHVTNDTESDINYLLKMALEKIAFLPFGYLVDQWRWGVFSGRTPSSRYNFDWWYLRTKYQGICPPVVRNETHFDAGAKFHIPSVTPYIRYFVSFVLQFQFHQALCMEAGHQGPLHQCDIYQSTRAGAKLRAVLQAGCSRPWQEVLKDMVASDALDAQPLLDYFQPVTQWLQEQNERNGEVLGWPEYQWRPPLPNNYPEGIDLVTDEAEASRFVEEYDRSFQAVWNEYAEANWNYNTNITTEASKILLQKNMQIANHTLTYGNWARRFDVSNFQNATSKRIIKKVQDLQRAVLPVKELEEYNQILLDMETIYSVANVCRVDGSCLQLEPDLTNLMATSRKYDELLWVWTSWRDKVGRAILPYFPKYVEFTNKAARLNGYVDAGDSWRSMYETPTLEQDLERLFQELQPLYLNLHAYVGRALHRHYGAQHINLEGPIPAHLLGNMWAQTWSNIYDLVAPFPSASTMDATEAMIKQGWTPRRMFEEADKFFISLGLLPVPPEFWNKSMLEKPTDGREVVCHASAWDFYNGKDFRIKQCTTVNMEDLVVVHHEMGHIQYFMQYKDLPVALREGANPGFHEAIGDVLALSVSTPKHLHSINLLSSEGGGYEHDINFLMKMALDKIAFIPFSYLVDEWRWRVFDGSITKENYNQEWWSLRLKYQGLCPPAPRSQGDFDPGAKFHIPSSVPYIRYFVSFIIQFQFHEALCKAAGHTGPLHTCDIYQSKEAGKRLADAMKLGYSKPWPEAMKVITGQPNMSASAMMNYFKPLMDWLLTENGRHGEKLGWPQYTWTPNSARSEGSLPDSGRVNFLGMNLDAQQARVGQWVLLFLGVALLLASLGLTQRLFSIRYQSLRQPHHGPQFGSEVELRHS
Put plainly: ACE inhibitory activity (HHL substrate, RP-HPLC of hippuric acid). Type of assay: biochemical. The source says:
Wheat gluten was obtained from CF Haishi Biotechnology Ltd. Co. (Beijing, China) and kept in sealed plastic bags at room temperature until use. Alcalase 2.4L (2.4 AU/g) was purchased from Novo Nordisk (Copenhagen, Denmark). Protex 7L (1600 AU/g) and α-amylase (26,000 RAU/g) were bought from Genencor Division of Danisco (Rochester, NY, USA). Fluorescein sodium salt, Trolox, DPPH, 2,2′-azobis(2-methylpropionamidine) dihydrochloride (AAPH), hippuryl-histidyl-leucine (HHL), hippuric acid (HA), and ACE (from rabbit lung) were obtained from Sigma-Aldrich Co. (St. Louis, MO, USA). The ABTS assay kit was supplied by Beyotime Biotechnology (Haimen, China). Acetonitrile and methanol were provided by Fisher Scientific (Pittsburgh, PA, USA). Trifluoroacetic acid (TFA) was supplied by Alfa Aesar (Ward Hill, MA, USA). Synthesized peptides were obtained from Scilight Biotechnology Co., Ltd (Beijing, China). The purity of the synthesized peptides was more than 98% according to HPLC analysis. All other chemicals were of analytical grade.
The modified approach of Cushman and Cheung[68] was used to analyze ACE inhibitory activity. Briefly, the preincubation of 20 µL of sample and 30 µL of ACE solution (60 mU/mL) was performed at 37 °C for 5 min. After adding 50 µL of the substrate (7.6 mmol/L HHL in 50 mmol/L sodium borate buffer containing 300 mmol/L NaCl at pH 8.3), the 30-min incubation of the mixture was performed at ambient temperature. The reaction was ceased with 100 µL of 1.0 mol/L HCl. RP-HPLC was employed to determine the amount of HA liberated by ACE on an Inertsil ODS-SP C18 column (4.6 mm × 150 mm, Shimadzu, Kyoto, Japan). The peak area was subject to the calculation of ACE inhibitory activity.

Setting [2] is: calculated from mmol/L values, read-out: ACE IC50 calculated in the units of mg/mL (converted).
[3] abbreviates: synthesized peptides, read-out: ACE IC50.

With Gly-Gly-Tyr, the IC50 in the assay on ACE is 1.3 µM.
As for Tyr-Gln (peptide), in assay [1], the IC50 of ACE inhibitory activity (hippuric acid liberated from HHL by ACE, RP-HPLC) was found to be 2000 µM.
Take `C[C@H](N)C(=O)N1CCC[C@H]1C(=O)N[C@@H](CO)C(=O)N[C@@H](Cc1ccc(O)cc1)C(=O)O` [Ala-Pro-Ser-Tyr] (H-APSY-OH): the IC50 on ACE (from rabbit lung) (setting [2]) is 1470 µM; at ACE (from rabbit lung) (setting [3]), 1470 ± 80 µM.
Regarding Leu-Tyr (peptide), the IC50 of ACE inhibitory activity (hippuric acid liberated from HHL by ACE, RP-HPLC) in assay [1] is 310 µM.
For the molecule `N=C(N)NCCC[C@H](N)C(=O)NCC(=O)NCC(=O)N[C@@H](Cc1ccc(O)cc1)C(=O)O` [Arg-Gly-Gly-Tyr] (H-RGGY-OH), the IC50 on ACE (from rabbit lung) (setting [2]) is 1480 µM; on ACE (from rabbit lung) (setting [3]), 1480 ± 110 µM.
With `CC(C)C[C@H](N)C(=O)N[C@H](C(=O)N[C@@H](CO)C(=O)O)C(C)C` [Leu-Val-Ser] (H-Leu-Val-Ser-OH), the IC50 was 599 µM on ACE (from rabbit lung) (setting [2]) and 600 ± 30 µM on ACE (from rabbit lung) (setting [3]).
On to “Ala-His-Ser-Tyr (AHSY; printed: Ala-His-Ser-Tyr)”, for which the IC50 in the assay on ACE (isolated from cuttlefish) was 11.6 µM.
As for `NC(=O)CC[C@H](NC(=O)[C@@H](N)Cc1ccc(O)cc1)C(=O)O` [Tyr-Gln] (H-Tyr-Gln-OH), the IC50 was 2000 µM at ACE (from rabbit lung) (setting [2]) and 2000 ± 130 µM at ACE (from rabbit lung) (setting [3]).
Take Leu-Val-Ser (peptide): the IC50 of ACE inhibitory activity (hippuric acid liberated from HHL by ACE, RP-HPLC) in assay [1] worked out at 600 µM.
On the same count and under the same terms, the same measure for RGGY [Arg-Gly-Gly-Tyr]: 1480 µM; for APSY [Ala-Pro-Ser-Tyr]: 1470 µM.
